In ChEMBL document CHEMBL2010697, “Fragment based drug discovery: practical implementation based on ¹⁹F NMR spectroscopy” (J Med Chem, 2012):

How the values were obtained:
Beta-secretase 1 [1] = biological target: T1, Beta-secretase 1 (Homo sapiens, UniProt P56817); experiment: Binding affinity to BACE1 by surface plasmon resonance method
Beta-secretase 1 [2] = biological target: T1, Beta-secretase 1; experiment: Binding affinity to BACE1 by NMR-based differential chemical shift perturbation method

T1 sequence (P56817 whole entry): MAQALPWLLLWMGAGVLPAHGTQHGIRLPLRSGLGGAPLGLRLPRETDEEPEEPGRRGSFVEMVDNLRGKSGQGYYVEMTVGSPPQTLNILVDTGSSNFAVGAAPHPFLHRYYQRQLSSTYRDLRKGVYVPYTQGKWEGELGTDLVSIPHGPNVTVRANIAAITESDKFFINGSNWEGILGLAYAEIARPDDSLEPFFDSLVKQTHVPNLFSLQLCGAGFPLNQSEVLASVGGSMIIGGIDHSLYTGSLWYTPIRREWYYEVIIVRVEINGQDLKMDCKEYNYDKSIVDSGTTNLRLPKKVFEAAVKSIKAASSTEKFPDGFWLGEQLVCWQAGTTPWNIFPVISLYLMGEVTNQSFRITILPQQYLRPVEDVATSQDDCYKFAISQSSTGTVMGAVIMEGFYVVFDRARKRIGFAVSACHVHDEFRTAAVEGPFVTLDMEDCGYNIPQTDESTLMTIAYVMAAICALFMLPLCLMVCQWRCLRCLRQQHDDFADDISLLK

Compound	Kd (Beta-secretase 1 [1])	Kd (Beta-secretase 1 [2])
Nc1ccc2cc(F)ccc2n1	1280 µM	1000 µM
NC1=Nc2ccccc2Sc2cccc(F)c21	325 µM	400 µM
N=C(N)SCc1c(F)cccc1Cl	300 µM	350 µM
Fc1cccc(Cl)c1CN1CCNCC1	> 2000 µM	> 1000 µM
Nc1ccc2cc(C(F)(F)F)ccc2n1	3900 µM	
Cc1cc(N)nc2ccccc12	1300 µM	
Nc1cc(C(F)(F)F)c2ccccc2n1	2900 µM	
Nc1ccc2cc(-c3ccccc3F)ccc2n1	39 µM	
Nc1ccc2cc(-c3ccccc3C(F)(F)F)ccc2n1	200 µM	200 µM
O=C(NC1CCCCC1)C(F)(F)F		> 1000 µM
Cc1ccc2nc(N)ccc2c1	1600 µM	
Fc1cccc(C2NCCc3sccc32)c1 (racemic)	> 2000 µM	> 1000 µM
